In BindingDB's records for doi:10.1021/jm970522y (Parke-Davis Pharmaceutical Research, 1997) one finds IC50 data, which are given here for 23 compounds.

For orientation: IC50 means the concentration that gives 50% inhibition.

The target in this assay is T1, Dimer of Gag-Pol polyprotein [489-587] (Human immunodeficiency virus 1, UniProt P12497).
T1 construct: 489-587
The assay can be described thus: Protease Inhibition Assay. As to conditions: pH 6.2; 37 °C. The procedure:
For determination of IC50 values, HIV-1 protease was added to assay buffer containing inhibitor and the substrate (H-His-Lys-Ala-Arg-Val-Leu- (p-NO2) Phe-Glu-Ala-norleucine-Ser-NH2). The Leu- (p-NO2) Phe bond of the substrate was cleaved by the enzyme, and the substrate and products were separated by reversed-phase HPLC. Absorbance was measured at 220 nm, peak areas were determined, and percentage conversion to product was calculated.

Take `Cc1ccc(C(C)(C)C)c(SC2C(=O)CC(CCc3ccccc3)(c3ccc(O)cc3)OC2=O)c1` (stereo not drawn) [3-[(2-tert-butyl-5-methylphenyl)sulfanyl]-4-hydroxy-6-(4-hydroxyphenyl)-6-(2-phenylethyl)-5,6-dihydro-2H-pyran-2-one]: the IC50 came out at 40 nM.

`Cc1cc(SC2C(=O)CC(CCc3ccccc3)(c3ccc(OCCO)cc3)OC2=O)c(C(C)(C)C)cc1CO` (stereo not drawn) [3-{[2-tert-butyl-4-(hydroxymethyl)-5-methylphenyl]sulfanyl}-4-hydroxy-6-[4-(2-hydroxyethoxy)phenyl]-6-(2-phenylethyl)-5,6-dihydro-2H-pyran-2-one] displayed an IC50 of 1.4 nM.

On to `Cc1cc(SC2C(=O)CC(CCc3ccccc3)(c3ccccc3)OC2=O)c(C(C)(C)C)cc1O` (stereo not drawn) [3-[(2-tert-butyl-4-hydroxy-5-methylphenyl)sulfanyl]-4-hydroxy-6-phenyl-6-(2-phenylethyl)-5,6-dihydro-2H-pyran-2-one], for which it took 33 nM to reach half-maximal inhibition (IC50).

`Cc1cc(SC2C(=O)CC(CCc3ccccc3)(c3ccccc3)OC2=O)c(C(C)(C)C)cc1OCCO` (stereo not drawn) [PD 178390 Analog 41] gave an IC50 of 6.8 nM. This IC50 lies about 4.9-fold lower than the previous one.

Regarding `Cc1cc(SC2C(=O)CC(CCc3ccc(N)cc3)(c3ccccc3)OC2=O)c(C(C)(C)C)cc1CO` (stereo not drawn) [PD 178390 Analog 33], 3.1 nM corresponded to half-maximal inhibition (IC50).

The compound `Cc1ccc(C(C)(C)C)c(SC2C(=O)CC(CCc3ccccc3)(c3ccc(N)cc3)OC2=O)c1` (stereo not drawn) [6-(4-aminophenyl)-3-[(2-tert-butyl-5-methylphenyl)sulfanyl]-4-hydroxy-6-(2-phenylethyl)-5,6-dihydro-2H-pyran-2-one] came in with a half-inhibitory concentration (IC50) of 32 nM.

The compound `Cc1cc(SC2C(=O)CC(CCc3ccc(O)cc3)(c3ccc(O)cc3)OC2=O)c(C(C)(C)C)cc1CO` (stereo not drawn) [3-{[2-tert-butyl-4-(hydroxymethyl)-5-methylphenyl]sulfanyl}-4-hydroxy-6-(4-hydroxyphenyl)-6-[2-(4-hydroxyphenyl)ethyl]-5,6-dihydro-2H-pyran-2-one] registered an IC50 of 120 nM. This IC50 lies about 3.8-fold higher than the previous one.

For the compound `Cc1ccc(C(C)(C)C)c(SC2C(=O)CC(CCc3ccc(O)cc3)(c3ccccc3)OC2=O)c1` (stereo not drawn) [PD 178390 Analog 1], the IC50 amounted to 11 nM.

Regarding `Cc1ccc(C(C)(C)C)c(SC2C(=O)CC(CCc3ccccc3)(c3ccccc3)OC2=O)c1` (stereo not drawn) [4-Hydroxy-5,6-dihydropyrone deriv. 49], the IC50 was found to be 35 nM.

In turn, `COc1cc(C(C)(C)C)c(SC2C(=O)CC(CCc3ccccc3)(c3ccccc3)OC2=O)cc1C` (stereo not drawn) [3-[(2-tert-butyl-4-methoxy-5-methylphenyl)sulfanyl]-4-hydroxy-6-phenyl-6-(2-phenylethyl)-5,6-dihydro-2H-pyran-2-one] came in with an IC50 of 15 nM.

`Cc1cc(SC2C(=O)CC(CCc3cccc(O)c3)(c3ccccc3)OC2=O)c(C(C)(C)C)cc1CO` (stereo not drawn) [3-{[2-tert-butyl-4-(hydroxymethyl)-5-methylphenyl]sulfanyl}-4-hydroxy-6-[2-(3-hydroxyphenyl)ethyl]-6-phenyl-5,6-dihydro-2H-pyran-2-one]: it took 2.5 nM to reach half-maximal inhibition (IC50).

In the case of `Cc1cc(SC2C(=O)CC(CCc3ccc(O)cc3)(C3CCCCC3)OC2=O)c(C(C)(C)C)cc1CO` (stereo not drawn) [PD 178390 Analog 21], the concentration for half-maximal inhibition (IC50) worked out at 4.1 nM.

Compound `Cc1cc(SC2C(=O)CC(CCc3ccccc3)(c3ccc(OCCO)cc3)OC2=O)c(C(C)(C)C)cc1OCCO` (stereo not drawn) [3-{[2-tert-butyl-4-(2-hydroxyethoxy)-5-methylphenyl]sulfanyl}-4-hydroxy-6-[4-(2-hydroxyethoxy)phenyl]-6-(2-phenylethyl)-5,6-dihydro-2H-pyran-2-one] gave a 50% inhibitory concentration (IC50) of 6.4 nM.

Regarding `COCc1cc(C(C)(C)C)c(SC2C(=O)CC(CCc3ccccc3)(c3ccc(OCCO)cc3)OC2=O)cc1C` (stereo not drawn) [3-{[2-tert-butyl-4-(methoxymethyl)-5-methylphenyl]sulfanyl}-4-hydroxy-6-[4-(2-hydroxyethoxy)phenyl]-6-(2-phenylethyl)-5,6-dihydro-2H-pyran-2-one], the IC50 was 4.5 nM.

Compound `Cc1cc(SC2C(=O)CC(CCc3ccccc3)(c3ccc(OCCO)cc3)OC2=O)c(C(C)(C)C)cc1O` (stereo not drawn) [3-[(2-tert-butyl-4-hydroxy-5-methylphenyl)sulfanyl]-4-hydroxy-6-[4-(2-hydroxyethoxy)phenyl]-6-(2-phenylethyl)-5,6-dihydro-2H-pyran-2-one] displayed an IC50 of 3.7 nM.

`Cc1cc(SC2C(=O)CC(CCc3ccc(N)cc3)(C(C)C)OC2=O)c(C(C)(C)C)cc1CO` (stereo not drawn) [6-[2-(4-aminophenyl)ethyl]-3-{[2-tert-butyl-4-(hydroxymethyl)-5-methylphenyl]sulfanyl}-4-hydroxy-6-(propan-2-yl)-5,6-dihydro-2H-pyran-2-one] had an IC50 of 2.7 nM.

In the case of `Cc1cc(SC2C(=O)CC(C)(CCc3ccc(O)cc3)OC2=O)c(C(C)(C)C)cc1CO` (stereo not drawn) [PD 178390 Analog 12], the half-maximal inhibitory concentration (IC50) was determined as 4.3 nM.

`Cc1cc(SC2C(=O)CC(CCc3cccc(N)c3)(c3ccccc3)OC2=O)c(C(C)(C)C)cc1CO` (stereo not drawn) [6-[2-(3-aminophenyl)ethyl]-3-{[2-tert-butyl-4-(hydroxymethyl)-5-methylphenyl]sulfanyl}-4-hydroxy-6-phenyl-5,6-dihydro-2H-pyran-2-one] displayed an IC50 of 4 nM. This IC50 and that of the compound before are within 1.5-fold of each other.

The compound `Cc1ccc(C(C)(C)C)c(SC2C(=O)CC(CCc3ccc(N)cc3)(c3ccccc3)OC2=O)c1` (stereo not drawn) [6-[2-(4-aminophenyl)ethyl]-3-[(2-tert-butyl-5-methylphenyl)sulfanyl]-4-hydroxy-6-phenyl-5,6-dihydro-2H-pyran-2-one] yielded a 50% inhibitory concentration (IC50) of 24 nM. Compared with the last compound, the IC50 is about 6-fold higher.

`Cc1cc(SC2C(=O)CC(CCc3ccccc3)(c3ccccc3)OC2=O)c(C(C)(C)C)cc1CO` (stereo not drawn) [PD 178390 Analog 38] had a half-maximal inhibitory concentration (IC50) of 6.6 nM.

In the case of `Cc1ccc(C(C)(C)C)c(SC2C(=O)CC(CCc3ccccc3)(c3ccc(OCCO)cc3)OC2=O)c1` (stereo not drawn) [3-[(2-tert-butyl-5-methylphenyl)sulfanyl]-4-hydroxy-6-[4-(2-hydroxyethoxy)phenyl]-6-(2-phenylethyl)-5,6-dihydro-2H-pyran-2-one], the half-maximal inhibitory concentration (IC50) was found to be 12 nM.

In the case of `Cc1cc(SC2C(=O)CC(CCc3ccc(N)cc3)(C3CCCCC3)OC2=O)c(C(C)(C)C)cc1CO` (stereo not drawn) [PD 178390 Analog 36], the half-inhibitory concentration (IC50) was found to be 3.2 nM. This IC50 is about 3.8-fold lower than that of the compound before.

`Cc1cc(SC2C(=O)CC(CCc3ccc(O)cc3)(C(C)C)OC2=O)c(C(C)(C)C)cc1CO` (stereo not drawn) [3-{[2-tert-butyl-4-(hydroxymethyl)-5-methylphenyl]sulfanyl}-4-hydroxy-6-[2-(4-hydroxyphenyl)ethyl]-6-(propan-2-yl)-5,6-dihydro-2H-pyran-2-one]: inhibition was half-maximal at 3.6 nM (IC50). This IC50 and that of the compound before are within 1.5-fold of each other.
